Data: patent US8541449B2, “Substituted isoquinolines and isoquinolinones as Rho kinase inhibitors” (Sanofi, priority 2008, dated 2013)
Each block holds one compound with its values, some of them ahead of it.

Columns and labels:
Format in all cases: biochemical
[1] = biological target: T1, human recombinant ROCK II (Homo sapiens, UniProt O75116); assay: Determination of Rho kinase inhibition (Caliper peptide phosphorylation assay); details: 60 min at 32° C., negative decadal logarithm of the IC50
T1 construct: N-terminal His6-tagged recombinant human ROCK-II residues 11-552; His6 (N); purchased Millipore GmbH, Schwalbach, Germany
Procedure: Determination of Rho Kinase Inhibition
To measure Rho-kinase inhibition, IC50 values were determined according to the following protocol:
Active human recombinant ROCK II (N-terminal His6-tagged recombinant human ROCK-II residues 11-552) was purchased from Millipore GmbH, Schwalbach, Germany. The peptide substrate, Fluorescein-[…]-COOH, was obtained from JPT Peptide Technologies, Berlin, Germany. Adenosine-5′-triphosphate (ATP), bovine serum albumine (BSA), dimethylsulphoxide (DMSO), 4-(2-Hydroxyethyl)piperazine-1-ethanesulfonic acid (Hepes), Brij-35, dithiothreitol (DTT) and Pluronic F-68 were purchased from Sigma-Aldrich, Munich, Germany. Tris(hydroxymethyl)-aminomethane (Tris), magnesium chloride, NaOH, 1M HCl and EDTA were obtained from Merck Biosciences, Darmstadt, Germany. “Complete” protease inhibitor was from Roche Diagnostics, Mannheim, Germany.
(§1) Test compounds were diluted to the appropriate concentrations in buffer 1 (25 mM Tris-HCl, pH 7.4, 5 mM MgCl2, 2 mM DTT, 0.02% (w/v) BSA, 0.01% Pluronic F-68 and 3% DMSO). The ROCK II enzyme was diluted to a concentration of 100 ng/mL in buffer 2 (25 mM Tris-HCl, pH 7.4, 5 mM MgCl2, 2 mM DTT and 0.02% (w/v) BSA). The peptide substrate and ATP were diluted to concentrations of 3 μM and 120 μM, respectively, in the buffer 2. Two μl of the compound solution were mixed with 2 μl of the diluted enzyme in a 384-well small volume microtiter plate (Greiner, Bio-One, Frickenhausen, Germany), and the kinase reaction was initiated by addition of 2 μl of the solution containing peptide substrate and ATP. After 60 min incubation at 32° C., the reaction was stopped by addition of 20 μl of a solution containing 100 mM Hepes-NaOH, pH 7.4, 0.015% (v/v) Brij-35, 45 mM EDTA and 0.227% chip coating reagent 1 (Caliper Lifescience Inc, Hopkinton, Mass.). Phosphorylation of the substrate peptide was then detected on a Caliper 3000 instrument essentially as described by Pommereau et al (J. Biomol. Screening 9(5), 409-416, 2004). Separation conditions were as follows: Pressure −1.3 psi, upstream voltage −1562 V, downstream voltage −500 V, sample sip time 200 ms. Positive controls (buffer 1 instead of compound) and negative controls (buffer 1 instead of compound and buffer 2 instead of ROCK II) were run in parallel on each plate.
The following products/compounds were tested in said assay by using the respective form (salt or free base) obtained as in the examples described above and the following activities were measured

recombinant human PKA = biological target: T2, recombinant human PKA (Homo sapiens, UniProt P17612); assay: Determination of Protein Kinase A inhibition (Caliper peptide phosphorylation assay); details: recombinant human PKA versus ROCK II
T2 construct: Active recombinant human PKA (residues 1-351, N-terminal His-tag); His-tag (N); purchased Invitrogen, Karlsruhe, Germany
Procedure: (§2) Determination of Protein Kinase A and Protein Kinase G Inhibition
(§3) To measure PKA and PKG1-beta inhibition, IC50 values were determined according to the following protocol:
(§4) Active recombinant human PKG1-beta (full-length, with N-terminal His-tag) was purchased from Millipore GmbH, Schwalbach, Germany. Active recombinant human PKA (residues 1-351, N-terminal His-tag) was obtained from Invitrogen, Karlsruhe, Germany. The peptide substrate, Fluorescein-[…]-COOH, was obtained from JPT Peptide Technologies, Berlin, Germany. Adenosine-5′-triphosphate (ATP), bovine serum albumine (BSA), dimethylsulphoxide (DMSO), 4-(2-Hydroxyethyl)piperazine-1-ethanesulfonic acid (Hepes), Brij-35, dithiothreitol (DTT) and Pluronic F-68 were purchased from Sigma-Aldrich, Munich, Germany. Tris(hydroxymethyl)-aminomethane (Tris), magnesium chloride, NaOH, 1M HCl and EDTA were obtained from Merck Biosciences, Darmstadt, Germany. “Complete” protease inhibitor was from Roche Diagnostics, Mannheim, Germany.
as §1, with “PKG1-beta and PKA were” for “The ROCK II enzyme was”, “concentrations” for “a concentration”, “150 ng/ml and 30 ng/ml, respectively,” for “100 ng/mL”, “2.” for “2 (25 mM Tris-HCl, pH 7.4, 5 mM MgCl2, 2 mM DTT and 0.02% (w/v) BSA).”, “kinase solution)” for “ROCK II)”, “plate. The following products/compounds were tested in said assay by using the respective form (salt or free base) obtained as in the examples described above and the following activities were measured.” for “plate.”

[2] = biological target: T3, recombinant human PKG1-beta (Homo sapiens, UniProt Q13976); assay: Determination of Protein Kinase G inhibition (Caliper peptide phosphorylation assay); details: recombinant human PKG1-beta versus ROCK II
T3 construct: Active recombinant human PKG1-beta (full-length, with N-terminal His-tag); His-tag (N); purchased Millipore GmbH, Schwalbach, Germany
T3 sequence (Q13976 1-686 isoform Q13976-2): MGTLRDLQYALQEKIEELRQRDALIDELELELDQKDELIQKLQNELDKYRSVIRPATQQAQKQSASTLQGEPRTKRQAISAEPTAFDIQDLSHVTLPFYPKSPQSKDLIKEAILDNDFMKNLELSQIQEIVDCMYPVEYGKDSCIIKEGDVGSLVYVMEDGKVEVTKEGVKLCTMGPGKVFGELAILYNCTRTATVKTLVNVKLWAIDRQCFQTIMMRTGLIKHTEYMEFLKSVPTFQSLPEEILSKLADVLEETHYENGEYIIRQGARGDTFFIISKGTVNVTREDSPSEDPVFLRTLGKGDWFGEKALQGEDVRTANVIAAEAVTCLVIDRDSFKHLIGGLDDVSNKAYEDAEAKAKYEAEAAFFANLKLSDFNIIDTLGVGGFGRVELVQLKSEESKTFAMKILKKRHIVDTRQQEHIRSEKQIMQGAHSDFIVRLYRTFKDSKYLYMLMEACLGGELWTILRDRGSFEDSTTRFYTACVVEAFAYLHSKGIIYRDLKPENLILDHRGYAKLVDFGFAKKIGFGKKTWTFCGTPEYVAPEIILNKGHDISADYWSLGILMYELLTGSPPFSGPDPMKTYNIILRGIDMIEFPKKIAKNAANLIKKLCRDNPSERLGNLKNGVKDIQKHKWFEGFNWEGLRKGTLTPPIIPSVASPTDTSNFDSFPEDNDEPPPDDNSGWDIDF
Procedure: as §2, §3, §4
as §1, with “PKG1-beta and PKA were” for “The ROCK II enzyme was”, “concentrations” for “a concentration”, “150 ng/ml and 30 ng/ml, respectively,” for “100 ng/mL”, “2.” for “2 (25 mM Tris-HCl, pH 7.4, 5 mM MgCl2, 2 mM DTT and 0.02% (w/v) BSA).”, “kinase solution)” for “ROCK II)”, “plate. The following products/compounds were tested in said assay by using the respective form (salt or free base) obtained as in the examples described above and the following activities were measured.” for “plate.”

T1 sequence (O75116 11-552): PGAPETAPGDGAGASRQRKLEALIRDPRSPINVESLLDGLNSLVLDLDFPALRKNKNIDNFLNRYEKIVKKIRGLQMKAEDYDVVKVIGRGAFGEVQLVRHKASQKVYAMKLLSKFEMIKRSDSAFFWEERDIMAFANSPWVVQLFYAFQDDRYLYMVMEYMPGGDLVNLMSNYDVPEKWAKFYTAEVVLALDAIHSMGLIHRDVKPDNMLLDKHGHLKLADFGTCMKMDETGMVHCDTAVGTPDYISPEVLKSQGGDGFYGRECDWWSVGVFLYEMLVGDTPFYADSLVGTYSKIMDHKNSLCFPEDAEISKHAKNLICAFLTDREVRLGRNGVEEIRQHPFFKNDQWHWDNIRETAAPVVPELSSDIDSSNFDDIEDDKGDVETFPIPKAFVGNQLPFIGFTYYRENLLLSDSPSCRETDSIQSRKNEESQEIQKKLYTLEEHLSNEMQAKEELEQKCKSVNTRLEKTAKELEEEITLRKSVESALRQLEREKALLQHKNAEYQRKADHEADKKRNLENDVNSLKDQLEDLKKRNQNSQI

SMILES: CC(N)(c1ccccc1)C1CCC(Oc2cc3cc[nH]c(=O)c3cc2Cl)CC1 (stereo not shown) [Example 34, 6-[4-(1-Amino-1-phenyl-ethyl)-cyclohexyloxy]-7-chloro-2H-isoquinolin-1-one]
Selectivity against PKA (recombinant human PKA): >300 | Selectivity against PKG [2]: >10

SMILES: CCC(N)[C@]1(c2ccc(C)c(OC)c2)CC[C@H](Oc2cc3cc[nH]c(=O)c3cc2Cl)CC1 (stereo partly drawn) [Example 64, cis-6-[4-(1-Amino-propyl)-4-(3-methoxy-4-methyl-phenyl)-cyclohexyloxy]-7-chloro-2H-isoquinolin-1-one]
Selectivity against PKA (recombinant human PKA): >1000 | Selectivity against PKG [2]: >100

SMILES: CCC(N)[C@]1(c2ccc(F)c(F)c2)CC[C@H](Oc2cc3cc[nH]c(=O)c3cc2C)CC1 (stereo partly drawn) [Example 65, cis-6-[4-(1-Amino-propyl)-4-(3,4-difluoro-phenyl)-cyclohexyloxy]-7-methyl-2H-isoquinolin-1-one]
pIC50 [1]: +++++ (6.0≦pIC50<7.0)

SMILES: CCC(N)[C@]1(c2ccc(F)c(F)c2)CC[C@H](Oc2c(F)cc3c(=O)[nH]ccc3c2C)CC1 (stereo partly drawn) [Example 67, cis-6-[4-(1-Amino-propyl)-4-(3,4-difluoro-phenyl)-cyclohexyloxy]-7-fluoro-5-methyl-2H-isoquinolin-1-one]
pIC50 [1]: +++++ (6.0≦pIC50<7.0)

SMILES: CCC(N)[C@]1(c2ccccc2)CC[C@H](Oc2cc3ccncc3cc2Cl)CC1 (stereo partly drawn) [Example 89, cis-1-[4-(7-Chloro-iso-quinolin-6-yloxy)-1-phenyl-cyclohexyl]-propylamine]
pIC50 [1]: +++++ (6.0≦pIC50<7.0)

SMILES: CCC(N)[C@]1(c2ccccc2)CC[C@H](Oc2ccc3cnccc3c2Cl)CC1 (stereo partly drawn) [Example 92, cis-1-[4-(5-Chloro-isoquinolin-6-yloxy)-1-phenyl-cyclohexyl]-propylamine]
pIC50 [1]: +++++ (6.0≦pIC50<7.0)

SMILES: CCC(N)[C@]1(c2ccccc2)CC[C@H](Oc2cc3ccnc(N)c3cc2Cl)CC1 (stereo partly drawn) [Example 111, cis-6-[4-(1-Amino-propyl)-4-phenyl-cyclohexyloxy]-7-chloro-isoquinolin-1-ylamine]
pIC50 [1]: ++++++ (7.0≦pIC50<8.0)

SMILES: COCCC(N)[C@]1(c2ccc(F)cc2)CC[C@H](Oc2cc3cc[nH]c(=O)c3cc2Cl)CC1 (stereo partly drawn) [Example 115, cis-6-[4-(1-Amino-3-methoxy-propyl)-4-(4-fluoro-phenyl)-cyclohexyloxy]-7-chloro-2H-isoquinolin-1-one]
pIC50 [1]: +++++ (6.0≦pIC50<7.0)

Now from value to compound:

IC50 [1]: 0.1 to 1 µM
SMILES: NC(c1ccccc1)C1CCC(Oc2cc3cc[nH]c(=O)c3cc2Cl)CC1 (single isomer, unassigned) [Example 40, 6-[4-(Amino-phenyl-methyl)-cyclohexyloxy]-7-chloro-2H-isoquinolin-1-one]

IC50 [1]: 0.1 to 1 µM
SMILES: CC(N)(C1CCCC1)C1CCC(Oc2cc3cc[nH]c(=O)c3cc2Cl)CC1 (single isomer, unassigned) [Example 118, 6-{4-[1-Amino-1-cyclopentyl-ethyl]-cyclohexyl-oxy}-7-chloro-2H-isoquinolin-1-one]

IC50 [1]: 0.1 to 1 µM
SMILES: CCC(N)(CC)C1CCC(Oc2cc3cc[nH]c(=O)c3cc2Cl)CC1 (single isomer, unassigned) [Example 119, 6-{4-[1-Amino-1-ethyl-propyl]-cyclohexyloxy}-7-chloro-2H-isoquinolin-1-one]

Selectivity against PKA (recombinant human PKA): >100 | Selectivity against PKG [2]: >10
SMILES: CCCC(C)(N)C1CCC(Oc2cc3cc[nH]c(=O)c3cc2Cl)CC1 (single isomer, unassigned) [Example 124, 6-{4-[1-Amino-1-methyl-n-butyl]-cyclohexyloxy}-7-chloro-2H-isoquinolin-1-one]

Selectivity against PKA (recombinant human PKA): >100 | Selectivity against PKG [2]: >10
SMILES: NC(C1CCC(Oc2cc3cc[nH]c(=O)c3cc2Cl)CC1)C1CC1 (single isomer, unassigned) [Example 132, 6-[4-(Amino-cyclopropyl-methyl)-cyclohexyloxy]-7-chloro-2H-isoquinolin-1-one]

pIC50 [1]: +++++ (6.0≦pIC50<7.0)
SMILES: CCC(N)[C@]1(c2ccccc2)CC[C@H](Oc2c(C)cc3cnccc3c2C)CC1 (stereo partly drawn) [Example 90, cis-1-[4-(5,7-Dimethyl-isoquinolin-6-yloxy)-1-phenyl-cyclohexyl]-propylamine]

pIC50 [1]: +++++ (6.0≦pIC50<7.0)
SMILES: CCC(N)[C@]1(c2ccccc2)CC[C@H](Oc2cc3ccncc3cc2Br)CC1 (stereo partly drawn) [Example 94, cis-1-[4-(7-Bromo-isoquinolin-6-yloxy)-1-phenyl-cyclohexyl]-propylamine]

pIC50 [1]: +++++ (6.0≦pIC50<7.0)
SMILES: CCC(N)[C@]1(c2ccccc2)C[C@H]2C[C@@H]1CC2Oc1cc2cc[nH]c(=O)c2cc1Cl (stereo partly drawn) [Example 101, 6-[(1R,4R,5R)-5-(1-Amino-propyl)-5-phenyl-bicyclo[2.2.1]hept-2-yloxy]-7-chloro-2H-isoquinolin-1-one]

Selectivity against PKA (recombinant human PKA): >300 | Selectivity against PKG [2]: >10
SMILES: COc1ccc(C(C)(N)C2CCC(Oc3cc4cc[nH]c(=O)c4cc3Cl)CC2)cc1 (stereo not shown) [Example 117, 6-{4-[1-Amino-1-(4-methoxy-phenyl)-ethyl]-cyclohexyloxy}-7-chloro-2H-isoquinolin-1-one]
